According to patent US7342012B2, “Inhibitors of αLβ2 mediated cell adhesion” (Mitsubishi Tanabe Pharma Corporation, priority 1999, dated 2008):
Structures can show the parent of a compound that is named as a salt.

Row | SMILES | melting point
1 | N#Cc1ccc(C[C@]23C[C@@H](O)CN2C(=O)N(c2cc(Cl)nc(Cl)c2)C3=O)cc1 [Example 60, (5R,7R)-5-(4-Cyanobenzyl)-3-(2,6-dichloro-4-pyridyl)-7-hydroxy-1,3-diazabicyclo[3.3.0]octane-2,4-dione] | 97.6 °C
2 | [N-]=[N+]=N[C@@H]1CN2C(=O)N(c3cc(Cl)cc(Cl)c3)C(=O)[C@]2(Cc2ccc(Br)cc2)C1 [Example 3, (5S,7S)-5-(4-Bromobenzyl)-3-(3,5-dichlorophenyl)-7-azido-1,3-diazabicyclo[3.3.0]octane-2,4-dione] | 58.9 °C
3 | CS(=O)(=O)NCC(=O)N[C@@H]1CN2C(=O)N(c3cc(Cl)nc(Cl)c3)C(=O)[C@@]2(Cc2ccc(OC(F)(F)F)cc2)C1 [Example 253, (5R, 7S)-5-[4-(Trifluoromethoxy)benzyl]-3-(2,6-dichloro-4-pyridyl)-7-[(methansulfonylaminoacetyl)amino]-1,3-diazabicyclo[3.3.0]octane-2,4-dione] | 104.9 °C
4 | N#Cc1ccc(CC23CN(C(=O)CCC(=O)O)CCN2C(=O)N(c2cc(Cl)nc(Cl)c2)C3=O)cc1 (stereo not shown) [Example 163, 6-(4-Cyanobenzyl)-4-(3-carboxypropionyl)-8-(2,6-dichloro-4-pyridyl)-1,4,8-triazabicyclo[4.3.0]nonane-7,9-dione] | 100.9 °C (dec.)
5 | CS(=O)(=O)N1CCN2C(=O)N(c3cc(Cl)cc(Cl)c3)C(=O)C2(Cc2ccc(Br)cc2)C1 (stereo not shown) [Example 33, 4-Methanesulfonyl-6-(4-bromobenzyl)-8-(3,5-dichlorophenyl)-1,4,8-triazabicyclo[4.3.0]nonane-7,9-dione] | 229 °C
6 | CC(C)(C)OC(=O)CN1CCN2C(=O)N(c3cc(Cl)cc(Cl)c3)C(=O)C2(Cc2ccc(Br)cc2)C1 (stereo not shown) [Example 30, 4-(tert-Butoxycarbonylmethyl)-6-(4-bromobenzyl)-8-(3,5-dichlorophenyl)-1,4,8-triazabicyclo[4.3.0]nonane-7,9-dione] | 74.7 °C
7 | CN(C)CC(=O)N1CCN2C(=O)N(c3cc(Cl)nc(Cl)c3)C(=O)C2(Cc2ccc(C#N)cc2)C1 (stereo not shown) (as salt: HCl) [Example 166, 6-(4-Cyanobenzyl)-4-dimethylaminoacetyl-8-(2,6-dichloro-4-pyridyl)-1,4,8-triazabicyclo[4.3.0]nonane-7,9-dione] | 260.8 °C (dec.)
8 | N#Cc1ccc(C(F)(F)C23CCCN2C(=O)N(c2cc(Cl)cc(Cl)c2)C3=O)cc1 (stereo not drawn) [Example 113, 5-(4-Cyano-α,α-difluorobenzyl)-3-(3,5-dichlorophenyl)-1,3-diazabicyclo[3.3.0]octane-2,4-dione] | 66 °C
9 | NC(=O)C[C@H](NC(=O)c1c(Cl)cc(N2C(=O)N3CCCC3(Cc3ccc(Br)cc3)C2=O)cc1Cl)C(=O)O (stereo partly drawn) [Example 229, 5-(4-Bromobenzyl)-3-(3,5-dichloro-4-L-asparaginocarbonylphenyl)-1,3-diazabicyclo[3.3.0]octane-2,4-dione] | 172 °C
10 | N#Cc1ccc(CC23CCNN2C(=O)N(c2cc(Cl)nc(Cl)c2)C3=O)cc1 (stereo not shown) [Example 57, 5-(4-Cyanobenzyl)-3-(2,6-dichloro-4-pyridyl)-1,3,8-triazabicyclo [3.3.0]octane-2,4-dione] | 187 °C
11 | CC(=O)N[C@@H]1CN2C(=O)N(c3cc(Cl)cc(Cl)c3)C(=O)[C@@]2(Cc2ccc(Br)cc2)C1 [Example 48, (5R,7S)-5-(4-Bromobenzyl)-3-(3,5-dichlorophenyl)-7-acetamido-1,3-diazabicyclo[3.3.0]octane-2,4-dione] | 140.7 °C
12 | CN(C)CC(=O)N1CCN2C(=O)N(c3cc(Cl)cc(Cl)c3)C(=O)C2(Cc2ccc(Br)cc2)C1 (stereo not shown) [Example 31, 4-[(Dimethylamino)acetyl]-6-(4-bromobenzyl)-8-(3,5-dichlorophenyl)-1,4,8-triazabicyclo[4.3.0]nonane-7,9-dione] | 73.5 °C
13 | O=C1N(c2cc(Cl)nc(Cl)c2)C(=O)[C@]2(Cc3ccc(OC(F)(F)F)cc3)C[C@@H](O)CN12 [Example 59, (5S,7R)-5-[4-(Trifluoromethoxy)benzyl]-3-(2,6-dichloro-4-pyridyl)-7-hydroxy-1,3-diazabicyclo[3.3.0]octane-2,4-dione] | 162.3 °C
14 | N#Cc1ccc(CC23CCCN2C(=O)N(CCc2cccc(Cl)c2)C3=O)cc1 (stereo not shown) [Example 107, 5-(4-Cyanobenzyl)-3-[2-(3-chlorophenyl)ethyl]-1,3-diazabicyclo[3.3.0]octane-2,4-dione] | 148 °C

Results, then the molecule that gave them:

Row | melting point | SMILES
15 | 88.3 °C | O=C1N(c2cc(Cl)cc(Cl)c2)C(=O)[C@]2(Cc3ccc(Br)cc3)C[C@H](O)CN12 [Example 5, (5S,7S)-5-(4-Bromobenzyl)-3-(3,5-dichlorophenyl)-7-hydroxy-1,3-diazabicyclo[3.3.0]octane-2,4-dione]
16 | 71.2 °C | C[S+]([O-])c1ccc(CC23CCCN2C(=O)N(c2cc(Cl)cc(Cl)c2)C3=O)cc1 (stereo not shown) [Example 189, 5-(4-Methylsulfinylbenzyl)-3-(3,5-dichlorophenyl)-1,3-diazabicyclo[3.3.0]octane-2,4-dione]
17 | 85.4 °C | O=C1CN2C(=O)N(c3cc(Cl)cc(Cl)c3)C(=O)C2(Cc2ccc(Br)cc2)C1 (stereo not shown) [Example 35, 5-(4-Bromobenzyl)-3-(3,5-dichlorophenyl)-1,3-diazabicyclo[3.3.0]octane-2,4,7-trione]
18 | 236.5 °C | O=C(O)CN1CCN2C(=O)N(c3cc(Cl)cc(Cl)c3)C(=O)C2(Cc2ccc(Br)cc2)C1 (stereo not shown) [Example 34, 4-Carboxymethyl-6-(4-bromobenzyl)-8-(3,5-dichlorophenyl)-1,4,8-triazabicyclo[4.3.0]nonane-7,9-dione]
19 | 105.3 °C | COC(=O)c1ccc(CC23CCCN2C(=O)N(c2cc(Cl)c(O)c(Cl)c2)C3=O)cc1 (stereo not shown) [Example 142, 5-(4-Methoxycarbonylbenzyl)-3-(3,5-dichloro-4-hydroxyphenyl)-1,3-diazabicyclo[3.3.0]octane-2,4-dione]
20 | 77.1 °C | O=C1N(c2cc(Cl)cc(Cl)c2)C(=O)C2(Cc3ccc(-c4cccc(CO)c4)cc3)CCCN12 (stereo not shown) [Example 222, 5-[4-(3-Hydroxymethylphenyl)benzyl]-3-(3,5-dichlorophenyl)-1,3-diazabicyclo[3.3.0]octane-l2,4-dione]
21 | 66 °C | O=C1N(c2cccc(Cl)c2)C(=O)C2(Cc3ccc(Br)cc3)CCCN12 (stereo not shown) [Example 230]
22 | 76.3 °C | O=C1N(c2cc(Cl)nc(Cl)c2)C(=O)C2(Cc3ccc(Br)cc3)CCCN12 (stereo not shown) [Example 55, 3-(2,6-dichloro-4-pyridyl)-5-(4-bromobenzyl)-1,3-diazabicyclo[3.3.0]octane-2,4-dione]
23 | 92.5 °C | O=C1N(c2cc(Cl)cc(Cl)c2)C(=O)C2(Cc3ccc(Br)cc3)CNCCN12 (stereo not shown) [Example 27, 6-(4-Bromobenzyl)-8-(3,5-dichlorophenyl)-1,4,8-triazabicyclo[4.3.0]nonane-7,9-dione]
24 | 173.8 °C | O=C1N(c2cc(Cl)cc(Cl)c2)C(=O)C2(Cc3ccccc3)CCCN12 (stereo not shown) [Example 267]
25 | 124 °C | N#Cc1ccc(CC23CCCN2C(=O)N(Cc2cc(Cl)cc(Cl)c2)C3=O)cc1 (stereo not shown) [Example 106, 5-(4-Cyanobenzyl)-3-(3,5-dichlorobenzyl)-1,3-diazabicyclo[3.3.0]octane-2,4-dione]
